Laboratory results from paper PMC12290687, “Phenotypic Screening of the MMV Global Health Priority Box Identifies Selective Compounds with Anti-Toxoplasma gondii Activity” (ACS Omega, 2025).
Where two headings read alike, the source gives them in different places.

Experiments:
[1] = Cytotoxicity assay (resazurin reduction) in uninfected HFFs; type: cell-based, human; settings: human
Description: (§1) Toxoplasma gondii RH-2F1 tachyzoites, which express β-galactosidase, were maintained in human foreskin fibroblasts (HFFs). HFFs were cultured in Dulbecco’s Modified Eagle Medium (DMEM) supplemented with 10% fetal bovine serum (FBS), 2 mM L-glutamine, and 40 μg/mL gentamicin (referred to as D10) and incubated at 37 °C in a 5% CO2 humidified atmosphere. For infection assays, confluent monolayers were maintained in DMEM with 2% FBS (D2) prior to parasite inoculation.
(§2) For in vitro assays in 96-well plates, HFFs were seeded at 5 × 10^3 cells/well in the D10 medium and incubated for 12–16 h to allow adherence. […] For antiparasitic assays, HFFs were infected with RH-2F1 tachyzoites at a multiplicity of infection (MOI) of 1:1 for 3 h.
(§3) The resazurin assay was used to evaluate the compound cytotoxicity in uninfected HFFs. Following 72 h treatment, 100 μM resazurin was added to each well and incubated for 4 h at 37 °C. Fluorescence was measured using excitation/emission wavelengths of 565/590 nm. Controls included untreated cells (viability control), 1% DMSO (solvent control), 50 μM pyrimethamine (reference drug), and blank wells (no cells). Each condition was tested in duplicate in three independent experiments.

[2] = system: T. gondii intracellular tachyzoites; test: microbe, parasite or virus in culture; type: cell-based, Toxoplasma gondii RH-2F1; settings: half effective concentration against T. gondii intracellular tachyzoites in HFF, MOI 1:1, 72 h, duplicates in three independent experiments
Description: as §1, §2
Parasite proliferation was assessed by quantifying β-galactosidase activity, as previously described. Briefly, after the 72 h incubation, cells were lysed in 100 μL of lysis buffer (100 mM HEPES pH 7.5, 1 mM MgSO4, 0.1% Triton X-100, 5 mM DTT) for 15 min at room temperature. […] Following a 30 min incubation at 37 °C, absorbance was measured at 570 nm using a Varioskan LUX microplate reader (Thermo Scientific). Each assay included viability controls (untreated infected cells), solvent controls (1% DMSO), a positive control (1 μM pyrimethamine), and experimental blanks (no cells). All conditions were tested in two biological replicates in three independent experiments.
Compounds from the GHPB library were screened at a final concentration of 1 μM in infected HFF monolayers, using the β-galactosidase assay as a readout for parasite viability after 72 h.

[3] = system: P. falciparum ring stages; settings: literature report, reference mark not given; cited from earlier work
[4] = system: human foreskin fibroblasts (HFF); test: Cytotoxicity assay (resazurin reduction) in uninfected HFFs; type: cell-based; settings: half cytotoxic concentration against HFF, 72 h, highest concentration tested 50 μM
Description: as §1, §2, §3

Plasmodium liver stages = settings: literature report, reference mark not given; cited from earlier work
HepG2 cell line = system: HepG2 cell line; design: method as in Timoumi et al.; settings: ref Timoumi et al.; cited from earlier work
[5] = design: method as in Timoumi et al.; settings: doses of 350–500 mg/kg; ref Timoumi et al.; cited from earlier work
HEK293 cell line = system: HEK293 cell line; design: method as in Timoumi et al.; settings: ref Timoumi et al.; cited from earlier work
VERO/RAW cells = system: VERO/RAW cells; design: method as in Tali et al.; settings: ref Tali et al.; cited from earlier work
H. contortus = system: H. contortus; design: method as in Shanley et al. (2024); settings: ref Shanley et al. (2024); cited from earlier work
[6] = uninfected human foreskin fibroblasts (HFF), half cytotoxic concentration against HFF, 72 h, highest concentration tested 50 μM, read-out: CC50 (μM) ± SD

SMILES	CC50 at 72 h [1, 6]	EC50 ([2]; Toxoplasma gondii)	CC50 [4]	EC50 [2]	other results
CCOc1ccccc1NC(=O)Cn1c(=O)n(Cc2ccccc2)c(=O)c2c(C)c(C(=O)N(C)C)sc21 [MMV006430]	> 50 µM	0.3 ± 0.03 µM	–	–	time to activity against P. falciparum ring stages (fast-acting) [3]: under 65 h
O=C(Nc1ccc(Cl)c(C(F)(F)F)c1)Nc1ccc(Cl)c(C(F)(F)F)c1 [MMV027339]	–	–	5.51 ± 0.86 µM	0.5 ± 0.02 µM	–
CS(=O)(=O)c1ccc(-c2cnn3c2NC(c2cccc(S(=O)(=O)C4CC4)c2)CC3)cc1 (stereo not shown) [MMV674132]	> 50 µM	0.19 ± 0.04 µM	–	–	activity against Plasmodium liver stages (Plasmodium liver stages): activity; time to activity against P. falciparum ring stages (fast-acting) [3]: under 65 h
O=C(NC(=O)c1ccccc1Cl)Nc1ccc(OC(F)(F)F)cc1 [MMV689404, Triflumuron]	–	0.49 ± 0.03 µM	–	–	CC50 at 72 h ([1]; half cytotoxic concentration against HFF, 72 h, highest concentration tested 50 μM, read-out: CC50 (μM) ± SD): > 50 µM; CC50 (HepG2 cell line): 120 µM; in vivo toxicity finding [5]: hepatotoxicity and oxidative stress; CC50 (HEK293 cell line): 200 µM
CN(C)C1CC(NC(=O)c2ccc(Nc3nccc(-c4ccc(Cl)c(C(F)(F)F)c4)n3)cc2)C1 (stereo not shown) [MMV884814]	–	–	4.1 ± 1.18 µM	0.76 ± 0.06 µM	–
O=C(Nc1ncccc1O)c1ccc(N2CCOCC2)nc1 [MMV1103183]	–	–	> 50 µM	0.72 ± 0.39 µM	–
O=C(Nc1ncccc1O)c1ccc(Cn2cccn2)cc1 [MMV1266067]	–	–	> 50 µM	0.73 ± 0.13 µM	–
Cn1ccnc1SCC(=O)Nc1ccc(C(=O)Nc2ncccc2O)cc1 [MMV1267536]	29.2 ± 2.79 µM	0.19 ± 0.03 µM	–	–	activity against Plasmodium liver stages (Plasmodium liver stages): activity
O=C(Nc1ncccc1O)c1ccc(S(=O)(=O)NCCc2cccs2)cc1 [MMV1435700]	–	–	20 ± 3.8 µM	0.34 ± 0.08 µM	–
Cn1c(O)c(C(=O)Nc2ccc(Cl)c(Cl)c2)c(=O)n(C)c1=O [MMV1634081]	–	–	30.8 ± 4.55 µM	0.52 ± 0.01 µM	–
CO/C=C(/C(=O)OC)c1ccccc1COc1c(C)c(-c2ccc(C)cc2C)nn1C [MMV1794211]	–	0.01 ± 0.01 µM	–	–	CC50 (VERO/RAW cells): > 10 µM
COc1cc(/C=N/c2c(SC(F)(F)F)c(C#N)nn2-c2c(Cl)cc(C(F)(F)F)cc2Cl)ccc1O [MMV1794214, Vaniliprole]	–	0.07 ± 0.04 µM	–	–	CC50 at 72 h [1]: > 50 µM; effect on H. contortus (H. contortus): impairs motility and larval development
CCc1nc(N)nc(N)c1-c1ccc(Cl)cc1 [Pyrimethamine, reference compound]	> 50 µM	0.38 ± 0.03 µM	–	–	–
